Measured values as given in patent US6475434B1, “Composition and methods for preventing and removing biofilm embedded microorganisms from the surface of medical devices” (Baylor College of Medicine, priority 1998, dated 2002).
≈ marks a conversion by molar mass, not a printed value.

Experiments:
[1] = system: Staphylococcus epidermidis; test: Minimal bactericidal concentration for the studied strain; assay type: cell-based; settings: studied strain of Staphylococcus epidermidis
Experimental: Treatment phase: The lumens of the eight catheters were treated with biofilm penetrating composition solutions as described in Table I. The N-acetylcysteine and rifampin are used at a concentration equivalent to ten times the corresponding minimal bactericidal concentration of the N-aceylcysteine and the rifampin for the studied strain of Staphylococcus epidermidis (3.1 mg/ml and 0.02 μg/ml respectively).

[2] = system: Staphylococcus epidermidis; test: Flush cultures of biofilm-colonised catheter lumens after treatment solutions (Example 1); assay type: cell-based
Experimental: Seeding phase: A dynamic flow sterile system that consisted of an infusion bad containing a bacterial suspension of Staphylococcus epidermidis (4×10^5 cfu/ml of saline) that infused at equal (about 41 ml/hour) into the lumens of eight ethylene oxide gas sterilized, 7-french, 20 cm polyurethane, single-lumen catheters for 12 hours at room temperature. The catheters were covered plastic sheath to ensure sterility of the surfaces. The bacterial suspension drained from the catheters into beakers.
Growth phase: The lumens of the four catheters were infused with sterile trypticase soy broth (“TSB”) at a rate of 10 ml/hour for 24 hours to allow for biofilm formation. The infused broth drained from the catheters into the beakers. […]
The clamps were removed from each end of Catheters 1, 3, 5, and 7 and the treatment solutions were drained. […] Hundred microliter aliquots of the collected portions of the flushed TSB and 10-fold serial dilutions were inoculated onto chocolate agar plates and colony counts were determined after incubation of agar plates at 37° C. for 48 hours.

Structure (SMILES) | MBC [1] [µg/mL] | effect on biofilm and biofilm embedded microorganisms (in words) ([2]; Example 1 conclusion, 31 mg/ml in phosphate buffered saline) | antimicrobial activity against biofilm embedded microorganisms compared with rifampin (in words) ([2]; assessed by flush cultures, at the concentration used)
CO[C@H]1/C=C/O[C@@]2(C)Oc3c(C)c(O)c4c(O)c(c(/C=N/N5CCN(C)CC5)c(O)c4c3C2=O)NC(=O)/C(C)=C\C=C\[C@H](C)[C@H](O)[C@@H](C)[C@@H](O)[C@@H](C)[C@H](OC(C)=O)[C@@H]1C [rifampin] | 0.02 (≈ 2.43e-05 mM) |  | 
CC(=O)N[C@@H](CS)C(=O)O [N-acetylcysteine] | 3100 (≈ 19 mM) | effectively penetrates and breaks-up the biofilm and kills biofilm embedded microorganisms | surpasses the antimicrobial activity of rifampin
